Results on 17 compounds are retold here after US8067408B2, “Dual pharmacophores—PDE4-muscarinic antagonistics” (priority 2008, dated 2011).

As for `CCc1nc2c(cnn2CC)c(NC2CCOCC2)c1CNC(=O)c1cccc(C(=O)NCc2ccc(Cl)c(-c3cccc(CN4CCCN(C)CC4)c3)c2)c1` [Example 218, N-({6-Chloro-3′-[(4-methylhexahydro-1H-1,4-diazepin-1-yl)methyl]-3-biphenylyl}methyl)-N′-{[1,6-diethyl-4-(tetrahydro-2H-pyran-4-ylamino)-1H-pyrazolo[3,4-b]pyridin-5-yl]methyl}-1,3-benzenedicarboxamide], the melting point (usually the temperature, or range, at which the solid turns liquid) is 105 to 107 °C. The figure for `CCc1nc2c(cnn2CC)c(NC2CCOCC2)c1CNC(=O)c1cccc(C(=O)NCc2ccc(Cl)c(-c3cccc(CN4CCN(C)CC4)c3)c2)c1` [Example 219, N-({6-Chloro-3′-[(4-methyl-1-piperazinyl)methyl]-3-biphenylyl}methyl)-N′-{[1,6-diethyl-4-(tetrahydro-2H-pyran-4-ylamino)-1H-pyrazolo[3,4-b]pyridin-5-yl]methyl}-1,3-benzenedicarboxamide] is 112 to 114 °C; for `CCc1nc2c(cnn2CC)c(NC2CCOCC2)c1CNC(=O)c1cccc(C(=O)NCc2ccc(Cl)c(-c3cccc(CN4C[C@@H](C)N[C@@H](C)C4)c3)c2)c1` [Example 220, N-[(6-Chloro-3′-{[(3R,5S)-3,5-dimethyl-1-piperazinyl]methyl}-3-biphenylyl)methyl]-N′-{[1,6-diethyl-4-(tetrahydro-2H-pyran-4-ylamino)-1H-pyrazolo[3,4-b]pyridin-5-yl]methyl}-1,3-benzenedicarboxamide] it is 121 to 124 °C; for `CCc1nc2c(cnn2CC)c(NC2CCOCC2)c1CNC(=O)c1cccc(C(=O)NCc2ccc(Cl)c(-c3cccc(CN4CCCNCC4)c3)c2)c1` [Example 221, N-{[6-Chloro-3′-(hexahydro-1H-1,4-diazepin-1-ylmethyl)-3-biphenylyl]methyl}-N′-{[1,6-diethyl-4-(tetrahydro-2H-pyran-4-ylamino)-1H-pyrazolo[3,4-b]pyridin-5-yl]methyl}-1,3-benzenedicarboxamide] it is 116 to 119 °C. The figure for `CCc1nc2c(cnn2CC)c(NC2CCOCC2)c1CNC(=O)c1cccc(C(=O)NCc2ccc(Cl)c(-c3cccc(CN4CCNCC4)c3)c2)c1` [Example 222, N-{[6-Chloro-3′-(1-piperazinylmethyl)-3-biphenylyl]methyl}-N′-{[1,6-diethyl-4-(tetrahydro-2H-pyran-4-ylamino)-1H-pyrazolo[3,4-b]pyridin-5-yl]methyl}-1,3-benzenedicarboxamide] is 127 to 130 °C; for `CCc1nc2c(cnn2CC)c(NC2CCOCC2)c1CNC(=O)c1cccc(C(=O)NCc2ccc(Cl)c(-c3cccc(CN4C[C@@H]5C[C@H]4CN5)c3)c2)c1` [Example 223, N-({6-Chloro-3′-[(1S,4S)-2,5-diazabicyclo [2.2.1]hept-2-ylmethyl]-3-biphenylyl}methyl)-N′-{[1,6-diethyl-4-(tetrahydro-2H-pyran-4-ylamino)-1H-pyrazolo[3,4-b]pyridin-5-yl]methyl}-1,3-benzenedicarboxamide] it is 145 to 149 °C. `CCc1nc2c(cnn2CC)c(NC2CCOCC2)c1CNC(=O)c1cccc(C(=O)NCc2cc(Cl)cc(-c3cccc(CN4CCN[C@@H](C)C4)c3)c2)c1` [Example 224, N-[(5-Chloro-3′-{[(3S)-3-methyl-1-piperazinyl]methyl}-3-biphenylyl)methyl]-N′-{[1,6-diethyl-4-(tetrahydro-2H-pyran-4-ylamino)-1H-pyrazolo[3,4-b]pyridin-5-yl]methyl}-1,3-benzenedicarboxamide] showed a melting point of 119 to 121 °C. As for `CCc1nc2c(cnn2CC)c(NC2CCOCC2)c1CNC(=O)c1cccc(C(=O)NCc2cc(Cl)cc(-c3cccc(CN4CCN(C)CC4)c3)c2)c1` [Example 422, N-({5-Chloro-3′-[(4-methyl-1-piperazinyl)methyl]-3-biphenylyl}methyl)-N′-{[1,6-diethyl-4-(tetrahydro-2H-pyran-4-ylamino)-1H-pyrazolo[3,4-b]pyridin-5-yl]methyl}-1,3-benzenedicarboxamide], the melting point was in the range of 116 to 118 °C. The same measure for `CCc1nc2c(cnn2CC)c(NC2CCOCC2)c1CNC(=O)c1cc(C)cc(C(=O)NCc2ccc(OC)c(-c3cccc(CN4CCN[C@@H](C)C4)c3)c2)c1` [Example 423, N-{[1,6-Diethyl-4-(tetrahydro-2H-pyran-4-ylamino)-1H-pyrazolo[3,4-b]pyridin-5-yl]methyl}-5-methyl-N′-[(6-(methyloxy)-3′-{[(3S)-3-methyl-1-piperazinyl]methyl}-3-biphenylyl)methyl]-1,3-benzenedicarboxamide]: 121 to 123 °C; for `CCc1nc2c(cnn2CC)c(NC2CCOCC2)c1CNC(=O)c1cccc(C(=O)NCc2cc(Cl)cc(-c3cccc(CN4CCNCC4)c3)c2)c1` [Example 424, N-{[5-Chloro-3′-(1-piperazinylmethyl)-3-biphenylyl]methyl}-N′-{[1,6-diethyl-4-(tetrahydro-2H-pyran-4-ylamino)-1H-pyrazolo[3,4-b]pyridin-5-yl]methyl}-1,3-benzenedicarboxamide]: 119 to 122 °C; for `CCc1nc2c(cnn2CC)c(NC2CCOCC2)c1CNC(=O)c1cc(C)cc(C(=O)NCc2cccc(-c3cccc(CC4CCN(C)CC4)c3)c2)c1` [Example 425, N-{[1,6-Diethyl-4-(tetrahydro-2H-pyran-4-ylamino)-1H-pyrazolo[3,4-b]pyridin-5-yl]methyl}-5-methyl-N′-({3′-[(1-methyl-4-piperidinyl)methyl]-3-biphenylyl}methyl)-1,3-benzenedicarboxamide]: 119 to 121 °C. The same measure for `CCc1nc2c(cnn2CC)c(NC2CCOCC2)c1CNC(=O)c1cc(C)cc(C(=O)NCc2cccc(-c3cccc(CC4CCNCC4)c3)c2)c1` [Example 426, N-{[1,6-Diethyl-4-(tetrahydro-2H-pyran-4-ylamino)-1H-pyrazolo[3,4-b]pyridin-5-yl]methyl}-5-methyl-N′-{[3′-(4-piperidinylmethyl)-3-biphenylyl]methyl}-1,3-benzenedicarboxamide]: 130 to 132 °C. The figure for `CCc1nc2c(cnn2CC)c(NC2CCOCC2)c1CNC(=O)c1cc(C)cc(C(=O)NCc2ccc(OC)c(-c3cccc(CC4CCN(C)CC4)c3)c2)c1` [Example 427, N-{[1,6-Diethyl-4-(tetrahydro-2H-pyran-4-ylamino)-1H-pyrazolo[3,4-b]pyridin-5-yl]methyl}-5-methyl-N′-({6-(methyloxy)-3′-[(1-methyl-4-piperidinyl)methyl]-3-biphenylyl}methyl)-1,3-benzenedicarboxamide] is 115 to 117 °C. In the case of `CCc1nc2c(cnn2CC)c(NC2CCOCC2)c1CNC(=O)c1cccc(C(=O)NCc2cc(Cl)cc(-c3cccc(CN4CCCN(C)CC4)c3)c2)c1` [Example 428, N-({5-Chloro-3′-[(4-methylhexahydro-1H-1,4-diazepin-1-yl)methyl]-3-biphenylyl}methyl)-N′-{[1,6-diethyl-4-(tetrahydro-2H-pyran-4-ylamino)-1H-pyrazolo[3,4-b]pyridin-5-yl]methyl}-1,3-benzenedicarboxamide], the melting point was 111 to 113 °C. The figure for `CCc1nc2c(cnn2CC)c(NC2CCOCC2)c1CNC(=O)c1cccc(C(=O)NCc2cc(Cl)cc(-c3cccc(CN4C[C@@H](C)N[C@@H](C)C4)c3)c2)c1` [Example 429, N-[(5-Chloro-3′-{[(3R,5S)-3,5-dimethyl-1-piperazinyl]methyl}-3-biphenylyl)methyl]-N′-{[1,6-diethyl-4-(tetrahydro-2H-pyran-4-ylamino)-1H-pyrazolo[3,4-b]pyridin-5-yl]methyl}-1,3-benzenedicarboxamide] is 112 to 114 °C; for `CCc1nc2c(cnn2CC)c(NC2CCOCC2)c1CNC(=O)c1cccc(C(=O)NCc2cc(Cl)cc(-c3cccc(CN4CCCNCC4)c3)c2)c1` [Example 430, N-{[5-Chloro-3′-(hexahydro-1H-1,4-diazepin-1-ylmethyl)-3-biphenylyl]methyl}-N′-{[1,6-diethyl-4-(tetrahydro-2H-pyran-4-ylamino)-1H-pyrazolo[3,4-b]pyridin-5-yl]methyl}-1,3-benzenedicarboxamide] it is 121 to 124 °C; for `CCc1nc2c(cnn2CC)c(NC2CCOCC2)c1CNC(=O)c1cccc(C(=O)NCc2cc(Cl)cc(-c3cccc(CN4C[C@@H]5C[C@H]4CN5)c3)c2)c1` [Example 431, N-({5-Chloro-3′-[(1S,4S)-2,5-diazabicyclo [2.2.1]hept-2-ylmethyl]-3-biphenylyl}methyl)-N′-{[1,6-diethyl-4-(tetrahydro-2H-pyran-4-ylamino)-1H-pyrazolo[3,4-b]pyridin-5-yl]methyl}-1,3-benzenedicarboxamide] it is 130 to 133 °C.
